Measurements from patent US7381521B2, “Anti-pathogenic composition useful in blood preservation” (Altachem Pharma Ltd., priority 2001, dated 2008).

Tested on: erythrocytes in heparinized bovine blood
Assay: In-vitro hemolysis of erythrocytes in heparinized whole blood, absorbance at 413 nm
Conditions: 1 hour at 37° C.
Experimental: The effect of the compounds on the in-vitro hemolysis of erythrocytes in heparinized whole blood is monitored by a spectrophotometric method.
Various formulations and concentrations of the test compound are added to heparinized bovine blood and mixed gently in a 1.5 ml microcentrifuge tube. The sample is allowed to incubate for 1 hour at 37° C. At the end of incubation, the samples are removed from the incubator and centrifuged at 2000 rpm for 5 minutes. A 200 μl aliquot of the supernatant is removed from each sample into a 96 well microtiter plate and read at 413 nm. The absorbance of the test sample is compared to the control sample containing phosphate buffered saline, pH 7.2.

Compound | Concentration at which hemolysis is not observed [%]
C[N+](C)(C)CCCCCCCCCC[N+](C)(C)C.[I-].[I-] [Decamethonium Iodide] | 0.0125
C[N+](C)(C)CCCCCC[N+](C)(C)C [Hexamethonium Bromide] | 0.0125
Tergitol NP-9 | 0.001
